Values quoted from earlier work as cited in US20170065667A1, “METHODS FOR SYNCHRONIZATION OF ESTROUS CYCLES AND OVULATION FOR FIXED TIME ARTIFICIAL INSEMINATION IN CATTLE” (Parnell Technologies Pty Ltd., priority 2014, published 2017).

System: lactating dairy cows
Conditions: dinoprost 25 mg, cloprostenol 0.5 mg; cited from earlier work

For `CCCCC[C@H](O)/C=C/[C@@H]1[C@@H](C/C=C\CCCC(=O)O)[C@@H](O)C[C@H]1O` [dinoprost], the “percentage of cows with complete CL regression” value is given as 80%.
